The target of this test is T1, Akt1 (Homo sapiens, UniProt P31749, S473D).
T1 construct: The version of Akt used in these studies lacks the pleckstrin homology (PH) domain
The test can be described thus: Akt1 kinase assay, fluorescence polarization (IMAP). The class given is biochemical. On the procedure: The Akt1 kinase assay is based on the measurement of fluorescence polarization using IMAP technology (Molecular Devices Corporation #R8062). Two microliters of inhibitor compounds diluted to a concentration of 10 millimolar are added to column 2 of a polypropylene 96-well plate containing 98 microliters of 100% DMSO; the wells in columns 3-12 contain 60 microliters of 100% DMSO. The various test compounds are serially diluted 1:3 across the plate by pipetting 30 microliters of compounds into wells containing 60 microliters of 100% DMSO. Column 12 receives DMSO only and is used as a negative control for inhibition. The components of the wells are mixed and 15 microliters of each well are transferred to another 96-well plate already containing 60 microliters of reaction buffer (RB: 10 mM Tris-HCl, pH 7.5, 10 mM MgCl2, 0.1 mM EGTA, 0.01% Triton-X100 (Sigma #X-100), freshly added 1 mM DTT). After mixing, the […] reactions are assembled. First, five microliters of the above compound/reaction buffer mixture is transferred to the bottom of a 96-well black polystyrene reaction plate (Costar, #3694). Next, ten microliters of a solution containing 4 micromolar ATP and 40 nanomolar fluorescent-labeled Crosstide (Tamara-labeled […] peptide) are added. Then, 5 microliters (1.5 nanograms) of Akt protein in RB are added. The version of Akt used in these studies lacks the pleckstrin homology (PH) domain, and contains an aspartic acid residue in place of a serine residue in position 473 within the Akt1 hydrophobic motif. The Akt1 protein contains a polyhistidine tag at the amino terminus and is prephosphorylated on threonine at position 308 in order to activate latent kinase activity. Once the reaction components and inhibitors are assembled, the plates are gently tapped, covered with foil, and then incubated at ambient temperature for 30 minutes. IMAP beads (Molecular Devices) are then added (60 microliters of a 1:400 dilution of beads in RB). Plates are read on a Victor Plate Reader with the following settings: CW lamp filter: 544 nm, emission filter: 615 nm. Control values from wells lacking Akt protein are subtracted from the gross readings, and IC50 values are calculated using XLDA.

Setting [1] is: Table 1, concentration bins, read-out: Concentration Range at which exemplary compounds of formula I inhibit Akt kinase activity.
Setting [2] is: Table 3, read-out: Avg Akt kinase, μM (50% inhibition).
[3] abbreviates: average Akt kinase activity (IC50), read-out: Avg Akt kinase, μM (50% inhibition).
Where [4] appears, read: read-out: Avg Akt kinase, μM (50% inhibition).

Where two headings read alike, the source gives them in different places.

T1 sequence (P31749 118-480 S473D limits assumed, species assumed): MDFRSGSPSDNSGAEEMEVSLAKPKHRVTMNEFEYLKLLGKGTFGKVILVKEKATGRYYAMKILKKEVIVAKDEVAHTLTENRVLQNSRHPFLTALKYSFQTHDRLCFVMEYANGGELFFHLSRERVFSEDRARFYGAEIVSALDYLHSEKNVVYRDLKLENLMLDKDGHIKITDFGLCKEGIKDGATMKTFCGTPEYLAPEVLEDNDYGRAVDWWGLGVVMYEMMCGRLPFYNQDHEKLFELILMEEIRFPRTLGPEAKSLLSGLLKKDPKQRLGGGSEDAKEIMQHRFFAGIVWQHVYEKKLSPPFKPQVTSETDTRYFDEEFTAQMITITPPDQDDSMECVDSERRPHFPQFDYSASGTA

Turning to `Cc1c[nH]c2ncnc(N3CCC(N)(CN(CCN(C)C)Cc4ccccc4)C3)c12` (centres unmarked) [Example 47, N-{[3-amino-1-(5-methyl-7H-pyrrolo[2,3-d]pyrimidin-4-yl)pyrrolidin-3-yl]methyl}-N-benzyl-N′,N′-dimethylethane-1,2-diamine], the IC50 by setting is: under setting [1], 0.101 to 10 µM; under setting [2], 0.172 µM. As for `COC(=O)c1ccccc1NCC1(N)CCN(c2ncnc3[nH]nc(C)c23)C1` (centres unmarked) [Example 5, 2-{[3-Amino-1-(3-methyl-1H-pyrazolo[3,4-d]pyrimidin-4-yl)-pyrrolidin-3-ylmethyl]-amino}-benzoic acid methyl ester], the IC50 reads like this: under setting [1], 0.101 to 10 µM; under setting [2], 0.394 µM. As to `N#Cc1c[nH]c2ncnc(N3CC[C@](N)(CNC(=O)c4ccc(F)cc4)C3)c12` [Example 94], the IC50 reads like this: under setting [1], 0.00251 to 0.01 µM; under setting [3], 0.00923 µM. Consider `Cc1c[nH]c2ncnc(N3CCC(N)(COc4cccc(C(F)(F)F)c4)C3)c12` (centres unmarked) [Example 60, 1-(5-Methyl-7H-pyrrolo[2,3-d]pyrimidin-4-yl)-3-(3-trifluoromethyl-phenoxymethyl) pyrrolidin-3-ylamine], for which the IC50 under setting [1] is 0.0101 to 0.1 µM and the IC50 (Table 4, read-out: Avg Akt kinase, μM (50% inhibition)) turned out to be 0.0504 µM. With `N#Cc1c[nH]c2ncnc(N3CCC(N)(CNc4cccc(C(F)(F)F)c4F)C3)c12` (centres unmarked) [Example 40, 4-[3-amino-3-({[2-fluoro-3-(trifluoromethyl)phenyl]amino}-methyl)pyrrolidin-1-yl]-7H-pyrrolo[2,3-d]pyrimidine-5-carbonitrile], the IC50 reads like this: under setting [1], 0.00251 to 0.01 µM; under setting [2], 0.00807 µM.

Turning to `N#Cc1c[nH]c2ncnc(N3CC[C@](N)(CNC(=O)c4ccc(Cl)cc4F)C3)c12` [Example 99, N-{[(3S)-3-amino-1-(5-cyano-7H-pyrrolo[2,3-d]pyrimidin-4-yl)pyrrolidin-3-yl]methyl}-4-chloro-2-fluorobenzamide], the IC50 under setting [1] was in the range of 0.0101 to 0.1 µM and the IC50 under setting [3] is 0.0186 µM. As to `N[C@]1(CNC(=O)c2ccc(F)cc2)CCN(c2ncnc3[nH]cc(Cl)c23)C1` [Example 78, N-{[(3S)-3-amino-1-(5-chloro-7H-pyrrolo[2,3-d]pyrimidin-4-yl)pyrrolidin-3-yl]methyl}-4-fluorobenzamide], the IC50 is 0.00251 to 0.01 µM under setting [1] and 0.00267 µM under setting [3]. As for `N[C@]1(CNC(=O)c2ccccc2)CCN(c2ncnc3[nH]cc(Cl)c23)C1` [Example 108, N-{[(3S)-3-amino-1-(5-chloro-7H-pyrrolo[2,3-d]pyrimidin-4-yl)pyrrolidin-3-yl]methyl}benzamide], the IC50 under setting [1] was 0.00251 to 0.01 µM and the IC50 under setting [3] was 0.00251 µM. Take `Cc1cccc(F)c1C(=O)NC[C@@]1(N)CCN(c2ncnc3[nH]cc(C)c23)C1` [Example 121]: the IC50 under setting [1] lay within 0.0101 to 0.1 µM and the IC50 under setting [3] came to 0.0418 µM. Regarding `N#Cc1c[nH]c2ncnc(N3CCC(N)(CNc4cccc5c4CCCC5)C3)c12` (centres unmarked) [Example 38, 4-{3-amino-3-[(5,6,7,8-tetrahydronaphthalen-1-ylamino)methyl]pyrrolidin-1-yl}-7H-pyrrolo[2,3-d]pyrimidine-5-carbonitrile], the IC50 was 0.00251 to 0.01 µM under setting [1] and 0.00371 µM under setting [2]. Take `Cc1c(F)cccc1NCC1(N)CCN(c2ncnc3[nH]cc(C)c23)C1` (centres unmarked) [Example 28, 3-{[(3-fluoro-2-methylphenyl)amino]methyl}-1-(5-methyl-7H-pyrrolo[2,3-d]pyrimidin-4-yl)pyrrolidin-3-amine]: the IC50 under setting [1] was in the range of 0.00251 to 0.01 µM and the IC50 under setting [2] came out at 0.00952 µM. For `CCc1c[nH]c2ncnc(N3CC[C@](N)(CNC(=O)c4cccc(F)c4Cl)C3)c12` [Example 125, N-{[(3S)-3-amino-1-(5-ethyl-7H-pyrrolo[2,3-d]pyrimidin-4-yl)pyrrolidin-3-yl]methyl}-2-chloro-3-fluorobenzamide], the IC50 is, setting by setting: under setting [1], 0.0101 to 0.1 µM; under setting [3], 0.0139 µM. As to `Cc1c[nH]c2ncnc(N3CC[C@](N)(CNC(=O)c4ccc(F)cc4Cl)C3)c12` [Example 100, N-{[(3S)-3-amino-1-(5-methyl-7H-pyrrolo[2,3-d]pyrimidin-4-yl)pyrrolidin-3-yl]methyl}-2-chloro-4-fluorobenzamide], the IC50 is, setting by setting: under setting [1], 0.00251 to 0.01 µM; under setting [3], 0.00972 µM. In the case of `CN(CC1(N)CCN(c2ncnc3[nH]cc(Cl)c23)C1)c1ccc(Cl)cc1` (centres unmarked) [Example 55, 3-{[(4-chlorophenyl)(methyl)-amino]methyl}-1-(5-chloro-7H-pyrrolo[2,3-d]pyrimidin-4-yl)pyrrolidin-3-amine], the IC50 is 0.0101 to 0.1 µM under setting [1] and 0.012 µM under setting [2].

As for `Cc1c[nH]c2ncnc(N3CCC(N)(CNc4ccccc4S(=O)(=O)N4CC[C@@H](F)C4)C3)c12` (stereo partly drawn) [Example 15, 3-{[(2-{[(3R)-3-fluoropyrrolidin-1-yl]sulfonyl}phenyl)amino]methyl}-1-(5-methyl-7H-pyrrolo[2,3-d]pyrimidin-4-yl)pyrrolidin-3-amine], the IC50 is 0.0101 to 0.1 µM under setting [1] and 0.0154 µM under setting [2]. In the case of “3-{[(4-chlorophenyl)amino]methyl}-1-(1H-pyrrolo[2,3-b]pyridin-4-yl)pyrrolidin-3-amine [Example 17]”, the IC50 under setting [2] was 0.331 µM. On to `CNC1(CNC(=O)c2ccccc2)CCN(c2ncnc3[nH]cc(Cl)c23)C1` (centres unmarked) [Example 194], for which the IC50 under setting [1] fell in the range of 0.0101 to 0.1 µM and the IC50 under setting [4] came out at 0.0897 µM. Turning to `N[C@]1(CNC(=O)c2cccc(Cl)c2)CCN(c2ncnc3[nH]cc(Cl)c23)C1` [Example 112, N-{[(3S)-3-amino-1-(5-chloro-7H-pyrrolo[2,3-d]pyrimidin-4-yl)pyrrolidin-3-yl]methyl}-3-chlorobenzamide], the IC50 under setting [1] was in the range of 0.00251 to 0.01 µM and the IC50 under setting [3] came to 0.00376 µM. On to `CCc1c[nH]c2ncnc(N3CC[C@](N)(CNC(=O)c4cccc(F)c4F)C3)c12` [Example 89], for which the IC50 runs as follows: under setting [1], 0.00251 to 0.01 µM; under setting [3], 0.00278 µM. `Cc1c[nH]c2ncnc(N3CC[C@](N)(CNc4cccc(F)c4)C3)c12` [Example 37, (3S)-3-{[(3-fluorophenyl)amino]methyl}-1-(5-methyl-7H-pyrrolo[2,3-d]pyrimidin-4-yl)pyrrolidin-3-amine]: the IC50 is 0.00251 to 0.01 µM under setting [1] and 0.00329 µM under setting [2].

With `Cc1c[nH]c2ncnc(N3CCC(N)(CNc4cccc(C(F)(F)F)c4)C3)c12` (centres unmarked) [Example 23, 1-(5-methyl-7H-pyrrolo[2,3-d]pyrimidin-4-yl)-3-({[3-(trifluoromethyl)phenyl]amino}-methyl)pyrrolidin-3-amine], the IC50 under setting [1] was in the range of 0.00251 to 0.01 µM and the IC50 under setting [2] is 0.00669 µM.

Regarding `Cc1c[nH]c2ncnc(N3CCC(N)(CCc4cccc(C(F)(F)F)c4)C3)c12` (centres unmarked) [Example 67, 1-(5-methyl-7H-pyrrolo[2,3-d]pyrimidin-4-yl)-3-{2-[3-(trifluoromethyl) -phenyl]ethyl}pyrrolidin-3-amine], the IC50 under setting [1] was in the range of 0.101 to 10 µM and the IC50 under setting [3] amounted to 0.126 µM. `Cc1c[nH]c2ncnc(N3CC[C@](N)(CNc4cccc(C(F)(F)F)c4F)C3)c12` [Example 36, (3S)-3-({[2-fluoro-3-(trifluoromethyl)phenyl]amino}-methyl)-1-(5-methyl-7H-pyrrolo[2,3-d]pyrimidin-4-yl)pyrrolidin-3-amine]: the IC50 was 0.00025 to 0.0025 µM under setting [1] and 0.002 µM under setting [2]. `N[C@]1(CNC(=O)c2c(F)cccc2Cl)CCN(c2ncnc3[nH]cc(Cl)c23)C1` [Example 113, N-{[(3S)-3-amino-1-(5-chloro-7H-pyrrolo[2,3-d]pyrimidin-4-yl)pyrrolidin-3-yl]methyl}-2-chloro-6-fluorobenzamide]: the IC50 runs as follows: under setting [1], 0.0101 to 0.1 µM; under setting [3], 0.0332 µM. As to `N[C@]1(CNC(=O)c2ccc(Cl)c(F)c2)CCN(c2ncnc3[nH]cc(Cl)c23)C1` [Example 83, N-{[(3S)-3-amino-1-(5-chloro-7H-pyrrolo[2,3-d]pyrimidin-4-yl)pyrrolidin-3-yl]methyl}-4-chloro-3-fluorobenzamide], the IC50 is, setting by setting: under setting [1], 0.00251 to 0.01 µM; under setting [3], 0.00915 µM.

For `N#Cc1c[nH]c2ncnc(N3CCC(N)(CNc4ccc5c(c4)CNCC5)C3)c12` (centres unmarked) [Example 39, 4-{3-amino-3-[(1,2,3,4-tetrahydroisoquinolin-7-ylamino)methyl]pyrrolidin-1-yl}-7H-pyrrolo[2,3-d]pyrimidine-5-carbonitrile], the IC50 is, setting by setting: under setting [1], 0.101 to 10 µM; under setting [2], 4.1 µM. Consider `Cc1c[nH]c2ncnc(N3CCC(N)(CNS(=O)(=O)c4c(F)cccc4F)C3)c12` (centres unmarked) [Example 198, N-{[3-amino-1-(5-methyl-7H-pyrrolo[2,3-d]pyrimidin-4-yl)pyrrolidin-3-yl]methyl}-2,6-difluorobenzenesulfonamide], for which the IC50 runs as follows: under setting [1], 0.0101 to 0.1 µM; under setting [4], 0.00267 µM.
